Data from ChEMBL document CHEMBL5608259 (J Med Chem, 2024).
Calls of active or inactive are those of the source. The rule behind the calls is not given here.

Legend:
[1] = target: T1, Protein arginine N-methyltransferase 3 (Homo sapiens, UniProt O60678); assay: Inhibition of PRMT3 (unknown origin)
[2] = target: T2, Protein arginine N-methyltransferase 7 (Homo sapiens, UniProt Q9NVM4); assay: Inhibition of PRMT7 (unknown origin)
T2 sequence (Q9NVM4 whole entry): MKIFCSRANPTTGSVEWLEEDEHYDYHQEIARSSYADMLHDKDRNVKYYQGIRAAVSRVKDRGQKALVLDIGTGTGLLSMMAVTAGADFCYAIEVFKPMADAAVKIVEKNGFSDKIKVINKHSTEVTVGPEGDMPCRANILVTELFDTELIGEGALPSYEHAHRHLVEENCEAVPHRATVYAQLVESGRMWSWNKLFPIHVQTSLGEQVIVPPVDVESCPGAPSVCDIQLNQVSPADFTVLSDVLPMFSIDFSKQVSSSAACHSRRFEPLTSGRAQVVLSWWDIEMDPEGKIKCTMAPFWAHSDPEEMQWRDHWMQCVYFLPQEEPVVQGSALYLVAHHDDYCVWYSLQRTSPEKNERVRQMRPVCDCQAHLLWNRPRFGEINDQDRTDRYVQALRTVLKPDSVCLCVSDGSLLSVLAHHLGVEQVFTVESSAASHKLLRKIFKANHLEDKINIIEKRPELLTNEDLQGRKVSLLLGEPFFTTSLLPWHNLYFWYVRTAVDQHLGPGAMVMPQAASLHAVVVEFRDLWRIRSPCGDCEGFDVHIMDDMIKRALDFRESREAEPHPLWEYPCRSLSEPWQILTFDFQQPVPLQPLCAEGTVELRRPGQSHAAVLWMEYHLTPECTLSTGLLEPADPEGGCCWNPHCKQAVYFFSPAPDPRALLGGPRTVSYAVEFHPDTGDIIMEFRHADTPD

[3] = target: T3, Protein arginine N-methyltransferase 6 (Homo sapiens, UniProt Q96LA8); assay: Inhibition of PRMT6 (unknown origin)
[4] = target: T4, Protein arginine N-methyltransferase 8 (Homo sapiens, UniProt Q9NR22); assay: Inhibition of PRMT8 (unknown origin)
[5] = target: T5, Histone-arginine methyltransferase CARM1 (Homo sapiens, UniProt Q86X55); assay: Inhibition of PRMT4 (unknown origin)
T5 sequence (Q86X55 whole entry): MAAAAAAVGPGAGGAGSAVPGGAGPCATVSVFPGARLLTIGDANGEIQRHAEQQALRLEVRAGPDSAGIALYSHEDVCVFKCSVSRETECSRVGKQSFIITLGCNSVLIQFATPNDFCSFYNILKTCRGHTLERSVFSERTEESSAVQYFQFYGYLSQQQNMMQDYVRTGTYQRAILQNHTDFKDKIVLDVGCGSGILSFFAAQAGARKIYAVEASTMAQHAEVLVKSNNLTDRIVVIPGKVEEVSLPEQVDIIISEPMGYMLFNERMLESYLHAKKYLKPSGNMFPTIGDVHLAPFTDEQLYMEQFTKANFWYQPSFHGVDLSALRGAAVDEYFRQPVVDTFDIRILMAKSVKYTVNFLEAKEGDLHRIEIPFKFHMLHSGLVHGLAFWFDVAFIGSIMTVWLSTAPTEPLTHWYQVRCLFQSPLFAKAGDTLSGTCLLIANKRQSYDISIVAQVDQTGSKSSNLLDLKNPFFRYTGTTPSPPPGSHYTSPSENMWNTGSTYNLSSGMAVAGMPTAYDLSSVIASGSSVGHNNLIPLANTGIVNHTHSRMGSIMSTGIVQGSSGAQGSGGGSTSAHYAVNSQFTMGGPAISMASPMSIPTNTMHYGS

[6] = target: T6, Protein arginine N-methyltransferase 1 (Homo sapiens, UniProt Q99873); assay: Inhibition of PRMT1 (unknown origin)
[7] = target: Protein arginine N-methyltransferase 5 (Homo sapiens, UniProt O14744); assay: Inhibition of PRMT5 (unknown origin)
[8] = target: T3, Protein arginine N-methyltransferase 6; assay: Inhibition of PRMT6 (unknown origin) incubated for 1 hr in presence of 3H-SAM by topcount plate reader analysis
PRMT5/MEP50 complex = PRMT5/MEP50 complex (Homo sapiens, UniProt O14744); assay: Inhibition of PRMT5/MEP50 (unknown origin) incubated for 1 hr in presence of 3H-SAM by topcount plate reader analysis; format: protein-complex assay
[9] = target: T1, Protein arginine N-methyltransferase 3; assay: Inhibition of PRMT3 (unknown origin) incubated for 1 hr in presence of 3H-SAM by topcount plate reader analysis
[10] = target: T5, Histone-arginine methyltransferase CARM1; assay: Inhibition of PRMT4 (unknown origin) incubated for 1 hr in presence of 3H-SAM by topcount plate reader analysis
[11] = target: T6, Protein arginine N-methyltransferase 1; assay: Inhibition of PRMT1 (unknown origin) incubated for 1 hr in presence of 3H-SAM by topcount plate reader analysis
[12] = target: T2, Protein arginine N-methyltransferase 7; assay: Inhibition of PRMT7 (unknown origin) incubated for 1 hr in presence of 3H-SAM by topcount plate reader analysis
[13] = target: T4, Protein arginine N-methyltransferase 8; assay: Inhibition of PRMT8 (unknown origin) incubated for 1 hr in presence of 3H-SAM by topcount plate reader analysis
[14] = target: T7, Histone-arginine methyltransferase CARM1 (Homo sapiens) (UniProt Q86X55); assay: Potency index, ratio of IC50 for EZM2302 to test compound IC50 for inhibition of PRMT4 in human MDA-MB-231 cells assessed as decrease in BAF155 methylation level incubated for 48 hrs by Western blot analysis; format: cell-based
T7 sequence (whole entry): T5 sequence (Q86X55 whole entry)

[15] = target: T7, Histone-arginine methyltransferase CARM1 (Homo sapiens); assay: Inhibition of PRMT4 in human MDA-MB-231 cells assessed as inhibition of PABP1 methylation at 10 uM by Western blot analysis; format: cell-based
MDA-MB-231 = assay: Inhibition of colony formation in human MDA-MB-231 cells at 10 uM incubated for 2 weeks by crystal violet staining based analysis relative to control; format: functional; conditions: MDA-MB-231, 336 h
[16] = target: T7, Histone-arginine methyltransferase CARM1 (Homo sapiens); assay: Inhibition of PRMT4 in human MDA-MB-231 cells assessed as decrease in BAF155 methylation level incubated for 24 to 48 hrs by Western blot analysis; format: cell-based; conditions: dose 0.01-20 µM, time 24-48 hrs
[17] = target: T5, Histone-arginine methyltransferase CARM1; assay: Inhibition of PRMT4 in human MDA-MB-231 cells assessed as decrease in BAF155 methylation level incubated for 24 hrs by Western blot analysis; format: cell-based
[18] = target: T7, Histone-arginine methyltransferase CARM1 (Homo sapiens); assay: Potency index, ratio of IC50 for TP-064 to test compound IC50 for inhibition of PRMT4 in human MDA-MB-231 cells assessed as decrease in BAF155 methylation level incubated for 48 hrs by Western blot analysis; format: cell-based
[19] = Drug recovery in mouse plasma at 5 uM measured after 5 hrs by LC-MS/MS analysis; format: ADME, cell-free; conditions: read-out: Drug recovery
[20] = Toxicity in Balb/c mouse assessed as effect on body weight at 50 mg/kg, ip measured after 4 weeks; format: organism-based; conditions: in vivo, 672 h
4T1.2 [21] = assay: Antitumor activity against mouse 4T1.2 cells xenografted in Balb/c mouse assessed as inhibition of tumor growth at 50 mg/kg, ip measured after 4 weeks by caliper method; format: functional, organism-based
[22] = target: T5, Histone-arginine methyltransferase CARM1; assay: Inhibition of PRMT4 in human MDA-MB-231 cells assessed as decrease in PABP1 methylation level incubated for 48 hrs by Western blot analysis; format: cell-based
[23] = target: T7, Histone-arginine methyltransferase CARM1 (Homo sapiens); assay: Inhibition of PRMT4 in human MDA-MB-231 cells assessed as decrease in PABP1 methylation level incubated for 24 to 48 hrs by Western blot analysis; format: cell-based; conditions: dose 0.01-20 µM, time 24-48 hrs
[24] = target: T5, Histone-arginine methyltransferase CARM1; assay: Inhibition of PRMT4 in human MDA-MB-231 cells assessed as decrease in BAF155 methylation level incubated for 48 hrs by Western blot analysis; format: cell-based
4T1.2 [25] = assay: In vivo inhibition of PRMT4 in mouse 4T1.2 cells xenografted in Balb/c mouse assessed as decrease in BAF155 methylation level at 50 mg/kg, ip by immunoblot analysis; format: functional, organism-based
[26] = Plasma protein binding in mouse at 5 uM measured after 5 hrs by LC-MS/MS analysis; format: ADME, cell-free; conditions: read-out: PPB (converted)
[27] = target: T5, Histone-arginine methyltransferase CARM1; assay: Inhibition of PRMT4 in human MDA-MB-231 cells assessed as decrease in PABP1 methylation level incubated for 24 hrs by Western blot analysis; format: cell-based
[28] = target: T7, Histone-arginine methyltransferase CARM1 (Homo sapiens); assay: Inhibition of PRMT4 in human MDA-MB-231 cells assessed as inhibition of BAF155 methylation at 10 uM by Western blot analysis; format: cell-based; conditions: time 1-48 hrs
[29] = Prodrug release in human MDA-MB-231 cells assessed as (2R,3R,4S,5S)-2-(6-amino-9H-purin-9-yl)-5-(((2-((3-bromobenzyl)amino)ethyl)thio)methyl)tetrahydrofuran-3,4-diol formation at 4.5 uM measured after 30 mins by LC-MS analysis; format: ADME, cell-based; conditions: mda-mb-231, 0.5 h

T1 sequence (O60678 whole entry): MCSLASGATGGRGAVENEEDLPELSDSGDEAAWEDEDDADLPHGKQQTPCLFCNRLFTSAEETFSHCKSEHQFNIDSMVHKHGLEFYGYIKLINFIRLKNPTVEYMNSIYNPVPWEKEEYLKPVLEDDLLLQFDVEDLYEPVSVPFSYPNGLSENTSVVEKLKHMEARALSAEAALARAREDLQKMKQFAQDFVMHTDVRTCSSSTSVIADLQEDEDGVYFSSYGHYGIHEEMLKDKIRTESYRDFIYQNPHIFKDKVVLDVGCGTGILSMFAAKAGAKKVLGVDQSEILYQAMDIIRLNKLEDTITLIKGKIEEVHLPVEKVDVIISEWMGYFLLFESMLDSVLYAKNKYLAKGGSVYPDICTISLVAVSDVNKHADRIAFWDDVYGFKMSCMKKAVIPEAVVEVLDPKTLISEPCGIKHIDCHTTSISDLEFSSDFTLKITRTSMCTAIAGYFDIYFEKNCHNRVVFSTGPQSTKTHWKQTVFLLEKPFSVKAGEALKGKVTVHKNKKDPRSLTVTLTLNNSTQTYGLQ
T3 sequence (Q96LA8 whole entry): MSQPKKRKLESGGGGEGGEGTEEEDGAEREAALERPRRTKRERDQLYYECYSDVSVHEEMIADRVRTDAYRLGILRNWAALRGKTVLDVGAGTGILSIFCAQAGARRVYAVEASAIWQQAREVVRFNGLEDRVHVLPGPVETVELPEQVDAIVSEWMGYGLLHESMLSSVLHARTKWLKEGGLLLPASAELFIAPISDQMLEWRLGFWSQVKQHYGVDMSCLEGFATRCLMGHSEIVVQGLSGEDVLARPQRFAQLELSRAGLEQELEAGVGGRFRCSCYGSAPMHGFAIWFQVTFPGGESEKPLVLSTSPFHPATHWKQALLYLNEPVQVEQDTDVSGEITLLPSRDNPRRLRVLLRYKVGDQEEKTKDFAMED
T4 sequence (Q9NR22 whole entry): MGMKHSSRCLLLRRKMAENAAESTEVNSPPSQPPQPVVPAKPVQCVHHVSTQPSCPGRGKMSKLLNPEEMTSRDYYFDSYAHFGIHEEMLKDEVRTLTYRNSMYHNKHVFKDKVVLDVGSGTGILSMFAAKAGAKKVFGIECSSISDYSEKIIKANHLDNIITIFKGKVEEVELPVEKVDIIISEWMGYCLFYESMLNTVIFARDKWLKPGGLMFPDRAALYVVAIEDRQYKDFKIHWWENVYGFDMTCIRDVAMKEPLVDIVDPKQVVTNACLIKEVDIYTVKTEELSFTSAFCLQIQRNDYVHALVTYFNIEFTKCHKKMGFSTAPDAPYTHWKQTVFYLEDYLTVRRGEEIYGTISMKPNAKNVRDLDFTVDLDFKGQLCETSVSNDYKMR
T6 sequence (Q99873 whole entry): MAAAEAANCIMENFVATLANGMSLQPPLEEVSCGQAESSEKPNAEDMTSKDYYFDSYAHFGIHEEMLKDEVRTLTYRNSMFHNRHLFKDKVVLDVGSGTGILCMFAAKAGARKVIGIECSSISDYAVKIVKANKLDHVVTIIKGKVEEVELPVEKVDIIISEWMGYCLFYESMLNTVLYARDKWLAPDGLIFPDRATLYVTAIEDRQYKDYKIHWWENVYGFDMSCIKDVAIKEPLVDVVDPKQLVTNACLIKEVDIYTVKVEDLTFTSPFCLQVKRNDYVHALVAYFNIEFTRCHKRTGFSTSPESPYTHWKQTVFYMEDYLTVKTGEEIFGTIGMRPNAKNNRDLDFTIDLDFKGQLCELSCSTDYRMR
PRMT5/MEP50 complex, sequence (O14744 whole entry): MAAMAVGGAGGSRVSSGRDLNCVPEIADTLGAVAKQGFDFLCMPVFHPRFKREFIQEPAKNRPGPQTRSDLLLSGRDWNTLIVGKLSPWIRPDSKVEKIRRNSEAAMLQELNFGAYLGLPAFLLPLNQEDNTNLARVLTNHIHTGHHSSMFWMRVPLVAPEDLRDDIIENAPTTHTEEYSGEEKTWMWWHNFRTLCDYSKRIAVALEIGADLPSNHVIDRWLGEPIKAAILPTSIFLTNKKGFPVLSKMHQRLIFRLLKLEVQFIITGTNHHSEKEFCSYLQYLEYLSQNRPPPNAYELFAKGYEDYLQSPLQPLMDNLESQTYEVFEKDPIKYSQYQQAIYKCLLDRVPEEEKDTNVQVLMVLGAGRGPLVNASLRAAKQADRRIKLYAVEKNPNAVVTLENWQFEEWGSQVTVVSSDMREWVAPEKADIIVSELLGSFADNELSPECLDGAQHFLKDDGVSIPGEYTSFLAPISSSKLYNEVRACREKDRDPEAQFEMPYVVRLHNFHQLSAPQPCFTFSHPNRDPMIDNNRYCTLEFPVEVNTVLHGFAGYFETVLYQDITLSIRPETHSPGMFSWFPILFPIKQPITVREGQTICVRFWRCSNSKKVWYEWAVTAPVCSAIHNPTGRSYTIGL
PRMT5/MEP50 complex, sequence (Q9BQA1 whole entry, further chain): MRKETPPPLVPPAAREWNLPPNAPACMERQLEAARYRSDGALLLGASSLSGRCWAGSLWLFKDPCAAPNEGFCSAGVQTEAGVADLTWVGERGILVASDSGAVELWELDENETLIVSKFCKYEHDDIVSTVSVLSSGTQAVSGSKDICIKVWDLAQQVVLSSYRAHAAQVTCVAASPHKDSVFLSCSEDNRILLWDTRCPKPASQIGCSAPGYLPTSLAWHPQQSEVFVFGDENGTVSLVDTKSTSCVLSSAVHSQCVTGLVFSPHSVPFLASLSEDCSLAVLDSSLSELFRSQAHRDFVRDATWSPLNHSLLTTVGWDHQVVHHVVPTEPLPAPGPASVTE
Protein arginine N-methyltransferase 5, sequence (O14744 whole entry): as the sequence (O14744 whole entry) above

## Nc1nc2cc(CC[C@H]3C[C@@H](n4ccc5c(N)ncnc54)[C@H](O)[C@@H]3O)ccc2cc1Br [ONAMETOSTAT]
[1]
  IC50: > 10000 nM
[2]
  IC50: > 10000 nM
[3]
  IC50: > 10000 nM
[4]
  IC50: > 10000 nM
[5]
  IC50: > 10000 nM
[6]
  IC50: > 10000 nM

## N=C(NCCSC[C@H]1O[C@@H](n2cnc3c(N)ncnc32)[C@H](O)[C@@H]1O)Nc1ccccc1Br
[7]
  IC50: 18.2 nM
[1]
  IC50: 321 nM
[2]
  IC50: 555 nM
[3]
  IC50: 30.5 nM
[4]
  IC50: 32.1 nM
[5]
  IC50: 5.05 nM

## Nc1ncnc2c1ncn2[C@@H]1O[C@H](CSCCCCNCc2cccc(-c3ccc(Cl)cc3)c2)[C@@H](O)[C@H]1O
[8]
  IC50: 1500 nM
PRMT5/MEP50 complex
  IC50: 150 nM
[9]
  IC50: 1600 nM
[10]
  IC50: 140 nM
[11]
  IC50: 1200 nM
[12]
  IC50: < 2.5 nM
[13]
  IC50: 7000 nM

## CC1=C(C)C(=O)C(C(C)(C)CC(=O)N(CCSC[C@H]2O[C@@H](n3cnc4c(N)ncnc43)[C@H](O)[C@@H]2O)Cc2cccc(Br)c2)=C(C)C1=O
[14]
  Ratio IC50: 2
[15]
  inhibition: Dose-Dependent Effect
MDA-MB-231
  inhibition at 10 µM: 100%
[16]
  inhibition: Dose-Dependent Effect
[17]
  IC50: 343 nM
[18]
  Ratio IC50: 2
[19]
  remaining at 5 h, 5 µM: 90.8%
[20]
  Activity: Non-Toxic
4T1.2 [21]
  inhibition: Active
[22]
  IC50: 23.1 nM
[23]
  inhibition: Dose-Dependent Effect
[24]
  IC50: 42.3 nM
4T1.2 [25]
  inhibition: Active
[26]
  fraction unbound at 5 h, 5 µM: 0.004
[27]
  IC50: 30.6 nM
[28]
  inhibition: Dose-Dependent Effect
[29]
  Drug metabolism: Metabolite_Detected
